Experimental data from US7202046B2, “Use of a fluorescent protein for detecting interaction between a target protein and its ligand” (priority 1997, dated 2007).
Several values for one entry are separate records, joined by “and”; a condition that tells them apart may be missing. Identical values can stand only once. Like-named read-outs stand apart in the source and are kept apart here.

What was measured:
[1] = system: non-transfected HEK 293 cells; assay: Release of intracellular calcium (FURA 2), non-transfected cells; assay type: cell-based
Method: (§1) The fluorescent calcium-chelating agent, FURA 2 acetyl methyl ester (Molecular Probes), dissolved in DMSO is diluted to a concentration of 3 μM in 10 mM Hepes, 137.5 mM NaCl, 1.25 mM MgCl2, 1.25 mM CaCl2, 6 mM KCl, 5.6 mM glucose, 0.4 mM NaH2PO4, 0.1% (w/v) BSA, pH 7.4 buffer. The cell culture medium is aspirated and then replaced with 7 to 10 ml of FURA 2 AM solution. The cells are placed in the CO2 incubator for 45 min. The medium is then aspirated, replaced with FURA-free Hepes buffer and the cells are replaced in the CO2 incubator for a further 15 min. The buffer is aspirated and the cells are then collected after they have been detached from the dish with a 5 mM EDTA, PBS solution for 5 min. After centrifugation at 1000×g for 5 min., the cell pellet obtained is re-suspended at a rate of 1×10^6 cells/ml in Hepes buffer.
(§2) The calcium-release measurements are carried out at 37° C., in a spectrofluorimetiy tank containing a magnetic stirrer bar. The excitation wavelength is set at […] and the emission wavelength is set at 510 nm.

[2] = system: fluorescent receptor NK2R-RF1; assay: Displacement of 3H SR 48968 binding (competition experiment), HEK 293 cells expressing NK2R-RF1; design: species or system rat; details: read-out: KI, displacement of 3H SR 48968, 1 nM 3H SR 48968, 25,000 cells, 4° C.
Method: Each 500 μl sample contains 25,000 cells, 1 nM 3HSR 48968 and a non-radioactive ligand at various concentrations (from 1 nM to 10 μM). The incubation is carried out for one hour at 4° C. Filtration is carried out at the end of incubation, as described in 3b).

[3] = molecular target: T1, wild-type NK2R receptor (Rattus norvegicus, UniProt P16610); assay: Release of intracellular calcium (FURA 2), cells expressing pCEP4-NK2R WT; assay type: cell-based; details: for inhibition of the NKA-elicited calcium response: antagonist (5 μM cyclopeptide) then 10 nM NKA
T1 construct: expressed in transfected cells; host or cells: HEK 293 cells, construct pCEP4-NK2R
T1 sequence (P16610 1-390): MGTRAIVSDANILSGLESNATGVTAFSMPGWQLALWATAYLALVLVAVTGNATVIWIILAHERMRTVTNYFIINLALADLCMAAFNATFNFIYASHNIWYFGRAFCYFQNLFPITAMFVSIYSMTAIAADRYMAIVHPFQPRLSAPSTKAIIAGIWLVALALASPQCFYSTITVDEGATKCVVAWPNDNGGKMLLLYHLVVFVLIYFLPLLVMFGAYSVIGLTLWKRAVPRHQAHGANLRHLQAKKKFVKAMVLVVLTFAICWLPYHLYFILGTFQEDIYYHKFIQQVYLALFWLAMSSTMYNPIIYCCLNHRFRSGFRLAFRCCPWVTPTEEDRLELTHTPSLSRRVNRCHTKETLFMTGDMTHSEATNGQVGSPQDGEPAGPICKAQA
Method: as §1, §2

[4] = system: NK2R-RF1; assay: Release of intracellular calcium (FURA 2), cells expressing pCEP4-NK2R-RF1; assay type: cell-based, rat; details: for inhibition of the NKA-elicited calcium response: antagonist (5 μM cyclopeptide) then 10 nM NKA
Method: as §1, §2

[5] = system: NK2R-RF1 receptor; assay: Fluorescence energy transfer between fluorescent ligand and NK2R-RF1 on HEK293 cells in suspension; assay type: binding, rat; details: for inhibition of real-time energy transfer between 100 nM NKA BO I and NK2R-RF1: 20 μM non-fluorescent ligand; for inhibition of real-time energy transfer between 100 nM NKA BO I and NK2R-RF1 / Kd: 10^6 cells/ml; for inhibition of real-time energy transfer between 100 nM NKA BO I and NK2R-RF1 / Kd / detection of receptor-fluorescent ligand interaction signal (energy transfer): emission 510 nm; for reversal of the energy transfer signal by excess non-labeled ligand, at equilibrium: 1–10 μM non-labeled ligand after 100 nM NKA BO I; for Kd: 0 to 256 nM ligand, read-out: affinity value KD from amplitude of the fluorescence signal; for detection of receptor-fluorescent ligand interaction signal (energy transfer): 100 nM fluorescent ligand, real time
Method: The fluorescence experiments are carried out in a 1 ml tank fitted with a magnetic stirring system and placed in a Fluorolog spectrofluorimeter (SPEX) equipped with a 450 W xenon lamp (Osram) and Spex 1680 0.22 m (excitation) and Spex 1681 0.22 m (emission) monochromators. The cells or the membrane fragments are suspended in physiological buffer: 10 mM Hepes, 137.5 mM NaCl, 1.25 mM MgCl2, 1.25 mM CaCl2, 6 mM KCl, 5.6 mM glucose, 0.4 mM NaH2PO4, 0.1% (w/v) BSA, pH 7.4.
The HEK293 cells expressing the NK2R-RF1 are suspended at a concentration of 1,000,000 cells/ml in Hepes physiological buffer (10 mM Hepes, 137.5 mM NaCl, 1.25 mM MgCl2, 1.25 mM CaCl2, 6 mM KCl, 5.6 mM glucose, 0.4 mM NaH2PO4, 0.1% (w/v) BSA, pH 7,4). The cells are then placed in a fluorescence tank at a concentration which can range from 100,000 to 1,000,000 cells/ml. […] The emission spectrum of the solution is again recorded. […] The appearance of a peak at 550–560 nm during the addition of the fluorescent ligand and a reduction in its intensity during the addition of non-labeled ligand are also detected. […] The signal is reversible by means of addition of a pharmacological agent capable of inhibiting the interaction between the ligand and its receptor.
The same recordings can be made in real time. For this, the excitation wavelength is set at 460 nm and the emission wavelength is set at 510 nm. […] The final value of the fluorescence intensity can be higher than the initial value when the absorption of the fluorescent ligand contributes to the signal.

[6] = molecular target: T2, fluorescent receptor NK2R-RF1 (Rattus norvegicus, UniProt P16610); assay: Saturation binding of 3H SR 48968 to whole cells expressing NK2R-RF1 (EGFP fused at N-terminal); details: two experiments
T2 construct: fused on or other part: EGFP (from pEGFP C3-1) fused at the receptor's N-terminus, preceded by the signal peptide of the hen alpha7 nicotinic receptor subunit; Both are tag or targeting parts and are not part of the key
Method: (§3) After incubation for 30 min. at room temperature, the samples are filtered through GF/C filters (Whatmann) pre-treated in 1% powdered milk in PBS (2.7 mM KCl, 1.47 mM KH2PO4, […], 8.06 mM Na2HPO4), rinsed twice with PBS (4 ml) and then counted in a scintillation cocktail.
(§4) Each 500 μl sample contains 25,000 cells, and the fraction of bound ligand is less than 10% of the amount added to each tube. Filtration is carried out at the end of incubation, as described above.

[7] = molecular target: T1, wild-type NK2R receptor; assay: Saturation binding of 3H SR 48968 to whole cells expressing wild-type NK2R; details: two experiments
Method: as §3, §4

[8] = saturation curve, 25,000 cells, 4° C., 1 h 30 min, read-out: affinity value (KD)

For neurokinin A [NKA], the calcium release response [1] was “does not elicit any response”, the Ki [2] was 2.1 nM and the “calcium release response elicited” value ([3]; 10 nM NKA, 37° C.) was “elicited”. The “calcium release response elicited” value ([4]; 10 nM NKA, 37° C.) was “elicited”, the “inhibition of real-time energy transfer between 100 nM NKA BO I and NK2R-RF1” value [5] was “inhibition” and the “reversal of the energy transfer signal by excess non-labeled ligand, at equilibrium” value [5] was “return to the initial fluorescence”. The “effect of non-fluorescent ligand alone on the fluorescence emission spectrum” value ([5]; cells expressing NK2R-RF1, no fluorescent ligand) was “has no effect on the fluorescence emission spectrum”.

With `CC(=O)NC1(c2ccccc2)CCN(CC[C@H](CN(C)C(=O)c2ccccc2)c2ccc(Cl)c(Cl)c2)CC1` [^3H SR 48968] the Kd [6, 8] was 0.8 nM and 0.92 nM, the “maximum binding (B max) value” ([6]; saturation curve) was 0.075 pMol/25,000 cells and 0.088 pMol/25,000 cells and the Kd [7, 8] was 1.05 nM and 0.78 nM. The “maximum binding value (B max)” value ([7]; saturation curve) was 0.1 pMol/25,000 cells.

With “cyclo(-Gln-Trp-Phe-Gly-Leu-Met) (QWFGLM; cyclic; printed: Gln-Trp-Phe-Gly-Leu-Met) [NK2R antagonist cyclopeptide (Bachem)]” the “inhibition of the NKA-elicited calcium response” value [3] was “inhibited”, the “inhibition of the NKA-elicited calcium response” value [4] was “inhibited” and the “inhibition of real-time energy transfer between 100 nM NKA BO I and NK2R-RF1” value [5] was “inhibition”. The “reversal of the energy transfer signal by excess non-labeled ligand, at equilibrium” value [5] was “return to the initial fluorescence”.

`CSCC[C@H](NC(=O)[C@H](CC(C)C)NC(=O)CNC(=O)[C@@H](NC(=O)[C@H](Cc1ccccc1)NC(=O)[C@H](CO)NC(=O)[C@H](CC(=O)O)NC(=O)[C@@H](NC(=O)[C@H](CCCCN)NC(=O)[C@H](Cc1c[nH]cn1)NCC(=O)NCCNC(=O)CCc1ccc2n1[B-](F)(F)[N+]1=C(c3ccccc3)C=C(c3ccccc3)C1=C2)[C@@H](C)O)C(C)C)C(N)=O` [NKA BO I] showed a Ki [2] of 16 nM, a Ki ([2]; listed as NKA-BO I) of 16.1 nM and a Kd ([5]; listed as NKA-BO I) of 24 nM. The Kd [5] was 20 to 30 nM and the “change of EGFP fluorescence (510 nm) on addition of fluorescent ligand, at equilibrium” value ([5]; 100 nM ligand, excitation 460 nm) was “extinction of the fluorescence of EGFP”.

In the case of “NKA TR: neurokinin A labeled with sulforhodamine 101 acid chloride (Texas Red)”, the “detection of receptor-fluorescent ligand interaction signal (energy transfer)” value [5] is reported as “detection of an NK2R-RF1 receptor-fluorescent ligand interaction signal”.

With “NKA Eos: eosin derivative of NKA (eosin-5-iodoacetamide)” the “detection of receptor-fluorescent ligand interaction signal (energy transfer)” value [5] was “detection of an NK2R-RF1 receptor-fluorescent ligand interaction signal”.

For `CC(=O)NC1(c2ccccc2)CCN(CC[C@H](CN(C)C(=O)c2ccccc2)c2ccc(Cl)c(Cl)c2)CC1` [SR 48968], the “inhibition of the NKA-elicited calcium response” value [3] was “inhibited”, the “inhibition of the NKA-elicited calcium response” value [4] was “inhibited” and the “reversal of the energy transfer signal by excess non-labeled ligand, at equilibrium” value [5] was “return to the initial fluorescence”.
